# Target: T1, mushroom tyrosinase (Agaricus bisporus, UniProt C7FF04)
# Assay: not given
# Conditions: read-out: Tyrosinase inhibitory activity IC50
# T1 sequence (C7FF04 1-392 limits assumed): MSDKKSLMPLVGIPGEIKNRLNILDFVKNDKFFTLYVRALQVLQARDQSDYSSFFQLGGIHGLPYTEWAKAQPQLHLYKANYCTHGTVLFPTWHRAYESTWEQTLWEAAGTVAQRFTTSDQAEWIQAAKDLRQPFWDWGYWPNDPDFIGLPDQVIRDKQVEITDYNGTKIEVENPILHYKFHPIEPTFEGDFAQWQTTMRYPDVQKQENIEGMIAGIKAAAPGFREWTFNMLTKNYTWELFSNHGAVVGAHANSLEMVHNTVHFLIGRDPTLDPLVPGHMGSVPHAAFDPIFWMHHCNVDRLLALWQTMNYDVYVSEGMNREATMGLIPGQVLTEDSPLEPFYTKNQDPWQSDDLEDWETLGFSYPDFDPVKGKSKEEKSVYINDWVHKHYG
row,IC50 [µM],Structure (SMILES)
1,17.26 ± 0.038,"Cc1ccccc1CC(=O)Nc1nnc(SCc2cn(Cc3cc(=O)c(O)co3)nn2)s1 [Compound 6j, N-(5-(((1-((5-hydroxy-4-oxo-4H-pyran-2-yl)methyl)-1H-1,2,3-triazol-4-yl)met-hyl)thio)-1,3,4-thiadiazol-2-yl)-2-(o-tolyl)acetamide]"
2,13.81 ± 0.066,"Cc1cccc(CC(=O)Nc2nnc(SCc3cn(Cc4cc(=O)c(O)co4)nn3)s2)c1 [Compound 6k, N-(5-(((1-((5-hydroxy-4-oxo-4H-pyran-2-yl)methyl)-1H-1,2,3-triazol-4-yl)met-hyl)thio)-1,3,4-thiadiazol-2-yl)-2-(m-tolyl)acetamide]"
3,3.289 ± 0.011,"Cc1ccc(CC(=O)Nc2nnc(SCc3cn(Cc4cc(=O)c(O)co4)nn3)s2)cc1 [Compound 6l, N-(5-(((1-((5-hydroxy-4-oxo-4H-pyran-2-yl)methyl)-1H-1,2,3-triazol-4-yl)met-hyl)thio)-1,3,4-thiadiazol-2-yl)-2-(p-tolyl)acetamide]"
4,3.832 ± 0.005,"COc1ccc(CC(=O)Nc2nnc(SCc3cn(Cc4cc(=O)c(O)co4)nn3)s2)cc1 [Compound 6p, N-(5-(((1-((5-hydroxy-4-oxo-4H-pyran-2-yl)methyl)-1H-1,2,3-triazol-4-yl)met-hyl)thio)-1,3,4-thiadiazol-2-yl)-2-(4-methoxyphenyl)acetamide]"

# Target: T1, mushroom tyrosinase
# Assay: biochemical
# Conditions: not given
row,Structure (SMILES),IC50 [µM]
1,"O=C(Nc1nnc(SCc2cn(Cc3cc(=O)c(O)co3)nn2)s1)c1ccccc1 [Compound 6a, N-(5-(((1-((5-hydroxy-4-oxo-4H-pyran-2-yl)methyl)-1H-1,2,3-triazol-4-yl)meth-yl)thio)-1,3,4-thiadiazol-2-yl)benzamide]",20.59 ± 0.037
2,"Cc1ccccc1C(=O)Nc1nnc(SCc2cn(Cc3cc(=O)c(O)co3)nn2)s1 [Compound 6b, N-(5-(((1-((5-hydroxy-4-oxo-4H-pyran-2-yl)methyl)-1H-1,2,3-triazol-4-yl)meth-yl)thio)-1,3,4-thiadiazol-2-yl)-2-methylbenzamide]",> 200
3,"Cc1cccc(C(=O)Nc2nnc(SCc3cn(Cc4cc(=O)c(O)co4)nn3)s2)c1 [Compound 6c, N-(5-(((1-((5-hydroxy-4-oxo-4H-pyran-2-yl)methyl)-1H-1,2,3-triazol-4-yl)meth-yl)thio)-1,3,4-thiadiazol-2-yl)-3-methylbenzamide]",> 200
4,"Cc1ccc(C(=O)Nc2nnc(SCc3cn(Cc4cc(=O)c(O)co4)nn3)s2)cc1 [Compound 6d, N-(5-(((1-((5-hydroxy-4-oxo-4H-pyran-2-yl)methyl)-1H-1,2,3-triazol-4-yl)meth-yl)thio)-1,3,4-thiadiazol-2-yl)-4-methylbenzamide]",> 200
5,"O=C(Nc1nnc(SCc2cn(Cc3cc(=O)c(O)co3)nn2)s1)c1ccc(Cl)cc1 [Compound 6e, 4–CHloro-N-(5-(((1-((5-hydroxy-4-oxo-4H-pyran-2-yl)methyl)-1H-1,2,3-triazol-4-yl)methyl)thio)-1,3,4-thiadiazol-2-yl)benzamide]",6.073 ± 0.035
6,"O=C(Nc1nnc(SCc2cn(Cc3cc(=O)c(O)co3)nn2)s1)c1ccc(F)cc1 [Compound 6g, 4-fluoro-N-(5-(((1-((5-hydroxy-4-oxo-4H-pyran-2-yl)methyl)-1H-1,2,3-triazol-4-yl)methyl)thio)-1,3,4-thiadiazol-2-yl)benzamide]",8.24 ± 0.023
7,"COc1ccc(C(=O)Nc2nnc(SCc3cn(Cc4cc(=O)c(O)co4)nn3)s2)cc1 [Compound 6h, N-(5-(((1-((5-hydroxy-4-oxo-4H-pyran-2-yl)methyl)-1H-1,2,3-triazol-4-yl)meth-yl)thio)-1,3,4-thiadiazol-2-yl)-4-methoxybenzamide]",5.56 ± 0.078
8,"Nc1ccc(C(=O)Nc2nnc(SCc3cn(Cc4cc(=O)c(O)co4)nn3)s2)cc1 [Compound 6i, 4-amino-N-(5-(((1-((5-hydroxy-4-oxo-4H-pyran-2-yl)methyl)-1H-1,2,3-triazol-4-yl)methyl)thio)-1,3,4-thiadiazol-2-yl)benzamide]",16.31 ± 0.016
9,"O=C(Cc1ccc(Cl)cc1)Nc1nnc(SCc2cn(Cc3cc(=O)c(O)co3)nn2)s1 [Compound 6m, 2-(4–CHlorophenyl)-N-(5-(((1-((5-hydroxy-4-oxo-4H-pyran-2-yl)methyl)-1H-1,2,3-triazol-4-yl)methyl)thio)-1,3,4-thiadiazol-2-yl)acetamide]",10.17 ± 0.032
10,"O=C(Cc1ccc(Br)cc1)Nc1nnc(SCc2cn(Cc3cc(=O)c(O)co3)nn2)s1 [Compound 6n, 2-(4-bromophenyl)-N-(5-(((1-((5-hydroxy-4-oxo-4H-pyran-2-yl)methyl)-1H-1,2,3-triazol-4-yl)methyl)thio)-1,3,4-thiadiazol-2-yl)acetamide]",12.36 ± 0.039
11,"O=C(Cc1ccc(F)cc1)Nc1nnc(SCc2cn(Cc3cc(=O)c(O)co3)nn2)s1 [Compound 6o, 2-(4-fluorophenyl)-N-(5-(((1-((5-hydroxy-4-oxo-4H-pyran-2-yl)methyl)-1H-1,2,3-triazol-4-yl)methyl)thio)-1,3,4-thiadiazol-2-yl)acetamide]",11.98 ± 0.022

# The next lines start with the values.
row,IC50 [µM],Structure (SMILES)
1,2.474 ± 0.023,"O=Cc1cccc(OCc2cn(Cc3cc(=O)c(O)co3)nn2)c1 [Compound 13a, 3-((1-((5-hydroxy-4-oxo-4H-pyran-2-yl)methyl)-1H-1,2,3-triazol-4-yl)methoxy)-benzaldehyde]"
2,4.604 ± 0.046,"CC(=O)c1cccc(OCc2cn(Cc3cc(=O)c(O)co3)nn2)c1 [Compound 13b, 2-((4-((3-acetylphenoxy)methyl)-1H-1,2,3-triazol-1-yl)methyl)-5-hydroxy-4H-pyran-4-one]"
3,4.55 ± 0.062,"O=Cc1ccc(OCc2cn(Cc3cc(=O)c(O)co3)nn2)cc1 [Compound 13c, 4-((1-((5-hydroxy-4-oxo-4H-pyran-2-yl)methyl)-1H-1,2,3-triazol-4-yl)methoxy)benzaldehyde]"
4,9.908 ± 0.044,"CC(=O)c1ccc(OCc2cn(Cc3cc(=O)c(O)co3)nn2)cc1 [Compound 13d, 2-((4-((4-acetylphenoxy)methyl)-1H-1,2,3-triazol-1-yl)methyl)-5-hydroxy-4H-pyran-4-one]"
5,5.961 ± 0.036,"O=Cc1ccc(F)cc1OCc1cn(Cc2cc(=O)c(O)co2)nn1 [Compound 13f, 4-fluoro-2-((1-((5-hydroxy-4-oxo-4H-pyran-2-yl)methyl)-1H-1,2,3-triazol-4-yl)methoxy)benzaldehyde]"
6,2.1 ± 0.078,"O=Cc1ccccc1OCc1cn(Cc2cc(=O)c(O)co2)nn1 [Compound 13g, 2-((1-((5-hydroxy-4-oxo-4H-pyran-2-yl)methyl)-1H-1,2,3-triazol-4-yl)methoxy)benzaldehyde]"
7,1.517 ± 0.01,"CC(=O)c1ccccc1OCc1cn(Cc2cc(=O)c(O)co2)nn1 [Compound 13k, 2-((4-((2-acetylphenoxy)methyl)-1H-1,2,3-triazol-1-yl)methyl)-5-hydroxy-4H-pyran-4-one]"
8,4.98 ± 0.057,"CC(C)(C)c1cccc(C=O)c1OCc1cn(Cc2cc(=O)c(O)co2)nn1 [Compound 13l, 3-(tert-butyl)-2-((1-((5-hydroxy-4-oxo-4H-pyran-2-yl)methyl)-1H-1,2,3-triazol-4-yl)methoxy)benzaldehyde]"
9,4.571 ± 0.004,"O=Cc1ccc(Cl)cc1OCc1cn(Cc2cc(=O)c(O)co2)nn1 [Compound 13m, 4–CHloro-2-((1-((5-hydroxy-4-oxo-4H-pyran-2-yl)methyl)-1H-1,2,3-triazol-4-yl)methoxy)benzaldehyde]"
10,4.231 ± 0.029,"O=Cc1ccc(Br)cc1OCc1cn(Cc2cc(=O)c(O)co2)nn1 [Compound 13p, 4-bromo-2-((1-((5-hydroxy-4-oxo-4H-pyran-2-yl)methyl)-1H-1,2,3-triazol-4-yl)methoxy)benzaldehyde]"
